Data: US11795204B2 (Zealand Pharma A/S, priority 2012, dated 2023)
Square brackets hold non-standard residues; d marks the D form. Peptide text beside a SMILES is read from it. Dab = NCC[C@H](N)C(=O)O; Dap = NC[C@H](N)C(=O)O; Aib = CC(C)(N)C(=O)O

Legend:
[1] = target: T1, human Glucagon-R (Homo sapiens, UniProt P47871); assay: Glucagon receptor assay (cAMP induction, AlphaScreen); assay type: cell-based; details: HEK293 cells expressing the human Glucagon-R, 15 min at 37° C., read-out: GCG-R EC50 in vitro
T1 construct: expressed in transfected cells
T1 sequence (P47871 26-477): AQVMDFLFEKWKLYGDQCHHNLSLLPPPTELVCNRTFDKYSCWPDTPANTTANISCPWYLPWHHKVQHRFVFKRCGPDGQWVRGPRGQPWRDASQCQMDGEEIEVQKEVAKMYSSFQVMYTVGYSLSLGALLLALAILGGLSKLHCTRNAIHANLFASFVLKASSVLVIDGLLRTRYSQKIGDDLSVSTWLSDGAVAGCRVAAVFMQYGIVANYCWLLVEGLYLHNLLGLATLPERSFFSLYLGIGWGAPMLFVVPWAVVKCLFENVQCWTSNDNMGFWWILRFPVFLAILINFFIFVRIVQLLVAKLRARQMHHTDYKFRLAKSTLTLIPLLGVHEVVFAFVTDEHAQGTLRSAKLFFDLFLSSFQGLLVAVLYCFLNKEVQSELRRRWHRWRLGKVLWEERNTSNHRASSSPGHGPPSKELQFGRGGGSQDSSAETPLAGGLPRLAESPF
Procedure: The 5′-end primers additionally encoded a near-Kozak consensus sequence to ensure efficient translation. […] 48 hr after transfection, cells were seeded for limited dilution cloning and selected with 1 mg/ml G418 in the culture medium.
On the day of analysis, growth medium was removed and the cells were washed once with […] of the included Assay buffer with IBMX. Cells were incubated in […] Assay buffer/IBMX containing increasing concentrations of test peptides for 15 min at 37° C. Then the peptides/Assay buffer was removed and cells were lysed by addition of […] Lysis buffer pr. well and incubation for at least 10 min at room temperature. From each well […] cell lysate was transferred to a 384-well OptiPlate and mixed with Donor and Acceptor beads and incubated for 1 h at room temperature. The cAMP content was measured on an Envision plate reader.

[2] = physchem; details: pH 7.5
Procedure: A stock solution of the test peptide (2 mg/ml; determined by measurement of the absorption of the solution at 280 nm, and using the theoretical extension coefficient based on the content of tryptophan and tyrosine in the peptide) in demineralized water adjusted to pH 2.5 with HCl was prepared, and aliquots were diluted 1:1 in 100 mM acetate buffer (pH 4.0) and 100 mM phosphate buffer (pH 7.5), respectively, and loaded in a standard flat-bottom, non-sterile 96-well UV Microplate. The absorbance of samples (single samples, n=1) at 280 and 325 nm was measured in an absorbance-based plate reader, which was preheated to ambient temperature.

Row | Molecule | EC50 [1] [nM] | solubility [2] [µg/mL]
1 | CC(C)C[C@H](NC(=O)[C@H](Cc1c[nH]c2ccccc12)NC(=O)[C@H](CCCCN)NC(=O)[C@@H](NC(=O)[C@H](Cc1ccccc1)NC(=O)[C@H](CO)NC(=O)[C@H](CCC(=O)O)NC(=O)[C@H](C)NC(=O)[C@H](CCCNC(=N)N)NC(=O)[C@H](C)NC(=O)C(C)(C)NC(=O)[C@H](CC(=O)O)NC(=O)[C@H](CC(C)C)NC(=O)[C@H](Cc1ccc(O)cc1)NC(=O)[C@H](CCCCN)NC(=O)[C@H](CO)NC(=O)[C@@H](NC(=O)[C@H](CC(=O)O)NC(=O)[C@H](CO)NC(=O)[C@@H](NC(=O)[C@H](Cc1ccccc1)NC(=O)[C@@H](NC(=O)CNC(=O)[C@H](CCC(N)=O)NC(=O)[C@H](CO)NC(=O)[C@@H](N)Cc1c[nH]cn1)[C@@H](C)O)[C@@H](C)O)C(C)C)C(C)C)C(=O)N[C@@H](CCC(=O)O)C(=O)N[C@@H](CO)C(=O)N[C@H](C(=O)O)[C@@H](C)O [Compound 23] (H-HSQGTFTSDVSKYLD[Aib]ARAESFVKWLEST-OH) | 0.16 | ≥ 1000
2 | CC(C)C[C@H](NC(=O)[C@H](Cc1c[nH]c2ccccc12)NC(=O)[C@H](CCC(=O)O)NC(=O)[C@@H](NC(=O)[C@H](Cc1ccccc1)NC(=O)[C@H](CCCCN)NC(=O)[C@H](CCC(=O)O)NC(=O)[C@H](C)NC(=O)[C@H](CCCNC(=N)N)NC(=O)[C@H](C)NC(=O)C(C)(C)NC(=O)[C@H](CC(=O)O)NC(=O)[C@H](CC(C)C)NC(=O)[C@H](Cc1ccc(O)cc1)NC(=O)[C@H](CCCCN)NC(=O)[C@H](CO)NC(=O)[C@H](Cc1ccc(O)cc1)NC(=O)[C@H](CC(=O)O)NC(=O)[C@H](CO)NC(=O)[C@@H](NC(=O)[C@H](Cc1ccccc1)NC(=O)[C@@H](NC(=O)CNC(=O)[C@H](CCC(N)=O)NC(=O)[C@H](CO)NC(=O)[C@@H](N)Cc1c[nH]cn1)[C@@H](C)O)[C@@H](C)O)C(C)C)C(=O)N[C@@H](CCC(=O)O)C(=O)N[C@@H](CO)C(=O)N[C@H](C(=O)O)[C@@H](C)O [Compound 34] (H-HSQGTFTSDYSKYLD[Aib]ARAEKFVEWLEST-OH) | 0.028 | ≥ 1000
3 | H-HSQGTFTSDYSRYLESARAEDFVKWLEST-OH [Compound 7] | 0.93 | ≥ 1000
4 | H-HSQGTFTSDYSKYLDKRRAEDFVSWLEST-OH [Compound 18] | 0.026 | ≥ 1000
5 | CC(C)C[C@H](NC(=O)[C@H](Cc1c[nH]c2ccccc12)NC(=O)[C@H](CO)NC(=O)[C@@H](NC(=O)[C@H](Cc1ccccc1)NC(=O)[C@H](CCC(=O)O)NC(=O)[C@H](CCC(=O)O)NC(=O)[C@H](C)NC(=O)[C@H](CCCNC(=N)N)NC(=O)[C@H](C)NC(=O)C(C)(C)NC(=O)[C@H](CC(=O)O)NC(=O)[C@H](CC(C)C)NC(=O)[C@H](Cc1ccc(O)cc1)NC(=O)[C@H](CCCCN)NC(=O)[C@H](CO)NC(=O)[C@H](Cc1ccc(O)cc1)NC(=O)[C@H](CC(=O)O)NC(=O)[C@H](CO)NC(=O)[C@@H](NC(=O)[C@H](Cc1ccccc1)NC(=O)[C@@H](NC(=O)CNC(=O)[C@H](CCC(N)=O)NC(=O)[C@H](CO)NC(=O)[C@@H](N)Cc1c[nH]cn1)[C@@H](C)O)[C@@H](C)O)C(C)C)C(=O)N[C@@H](CCC(=O)O)C(=O)N[C@@H](CCCCN)C(=O)N[C@H](C(=O)O)[C@@H](C)O [Compound 33] (H-HSQGTFTSDYSKYLD[Aib]ARAEEFVSWLEKT-OH) | 0.044 | ≥ 1000
6 | CC(=O)NCC[C@H](NC(=O)[C@H](CO)NC(=O)[C@@H](N)Cc1c[nH]cn1)C(=O)NCC(=O)N[C@H](C(=O)N[C@@H](Cc1ccccc1)C(=O)N[C@H](C(=O)N[C@@H](CO)C(=O)N[C@@H](CC(=O)O)C(=O)N[C@@H](Cc1ccc(O)cc1)C(=O)N[C@@H](CO)C(=O)N[C@@H](CCCCN)C(=O)N[C@@H](Cc1ccc(O)cc1)C(=O)N[C@@H](CC(C)C)C(=O)N[C@@H](CC(=O)O)C(=O)NC(C)(C)C(=O)N[C@@H](C)C(=O)N[C@@H](CCCNC(=N)N)C(=O)N[C@@H](C)C(=O)N[C@@H](CCC(=O)O)C(=O)N[C@@H](CCC(=O)O)C(=O)N[C@@H](Cc1ccccc1)C(=O)N[C@H](C(=O)N[C@@H](CCCCN)C(=O)N[C@@H](Cc1c[nH]c2ccccc12)C(=O)N[C@@H](CC(C)C)C(=O)N[C@@H](CCC(=O)O)C(=O)N[C@@H](CO)C(=O)N[C@H](C(=O)O)[C@@H](C)O)C(C)C)[C@@H](C)O)[C@@H](C)O [Compound 39] (H-HS[Dab](Ac)GTFTSDYSKYLD[Aib]ARAEEFVKWLEST-OH) | 0.0044 | ≥ 1000
7 | H-HSQGTFTSDYSKYLDEARAKSFVEWLEKT-OH [Compound 27] | 0.063 | ≥ 1000
8 | CC(C)C[C@H](NC(=O)[C@H](Cc1c[nH]c2ccccc12)NC(=O)[C@H](CCCCN)NC(=O)[C@@H](NC(=O)[C@H](Cc1ccccc1)NC(=O)[C@H](CCC(=O)O)NC(=O)[C@H](CCC(=O)O)NC(=O)[C@H](C)NC(=O)[C@H](CCCNC(=N)N)NC(=O)[C@H](C)NC(=O)C(C)(C)NC(=O)[C@H](CCC(=O)O)NC(=O)[C@H](CC(C)C)NC(=O)[C@H](Cc1ccc(O)cc1)NC(=O)[C@H](CCCCN)NC(=O)[C@H](CO)NC(=O)[C@H](Cc1ccc(O)cc1)NC(=O)[C@H](CC(=O)O)NC(=O)[C@H](CO)NC(=O)[C@@H](NC(=O)[C@H](Cc1ccccc1)NC(=O)[C@@H](NC(=O)CNC(=O)[C@H](CCC(N)=O)NC(=O)[C@H](CO)NC(=O)[C@@H](N)Cc1c[nH]cn1)[C@@H](C)O)[C@@H](C)O)C(C)C)C(=O)N[C@@H](CCC(=O)O)C(=O)N[C@@H](CO)C(=O)N[C@H](C(=O)O)[C@@H](C)O [Compound 37] (H-HSQGTFTSDYSKYLE[Aib]ARAEEFVKWLEST-OH) | 0.094 | ≥ 1000
9 | CC(C)C[C@H](NC(=O)[C@H](Cc1c[nH]c2ccccc12)NC(=O)[C@H](CCCCN)NC(=O)[C@@H](NC(=O)[C@H](Cc1ccccc1)NC(=O)[C@H](CO)NC(=O)[C@H](CCC(=O)O)NC(=O)[C@H](C)NC(=O)[C@H](CCCNC(=N)N)NC(=O)[C@H](C)NC(=O)C(C)(C)NC(=O)[C@H](CC(=O)O)NC(=O)[C@H](CC(C)C)NC(=O)[C@H](Cc1ccc(O)cc1)NC(=O)[C@H](CCCCN)NC(=O)[C@H](CO)NC(=O)[C@H](Cc1ccc(O)cc1)NC(=O)[C@H](CC(=O)O)NC(=O)[C@H](CO)NC(=O)[C@@H](NC(=O)[C@H](Cc1ccccc1)NC(=O)[C@@H](NC(=O)CNC(=O)[C@H](CCC(N)=O)NC(=O)[C@H](C)NC(=O)[C@@H](N)Cc1c[nH]cn1)[C@@H](C)O)[C@@H](C)O)C(C)C)C(=O)N[C@@H](CCC(=O)O)C(=O)N[C@@H](CO)C(=O)N[C@H](C(=O)O)[C@@H](C)O [Compound 20] (H-HAQGTFTSDYSKYLD[Aib]ARAESFVKWLEST-OH) | 0.24 | ≥ 1000
10 | CC(=O)NC[C@H](NC(=O)[C@H](CO)NC(=O)[C@@H](N)Cc1c[nH]cn1)C(=O)NCC(=O)N[C@H](C(=O)N[C@@H](Cc1ccccc1)C(=O)N[C@H](C(=O)N[C@@H](CO)C(=O)N[C@@H](CC(=O)O)C(=O)N[C@@H](Cc1ccc(O)cc1)C(=O)N[C@@H](CO)C(=O)N[C@@H](CCCCN)C(=O)N[C@@H](Cc1ccc(O)cc1)C(=O)N[C@@H](CC(C)C)C(=O)N[C@@H](CC(=O)O)C(=O)NC(C)(C)C(=O)N[C@@H](C)C(=O)N[C@@H](CCCNC(=N)N)C(=O)N[C@@H](C)C(=O)N[C@@H](CCC(=O)O)C(=O)N[C@@H](CCC(=O)O)C(=O)N[C@@H](Cc1ccccc1)C(=O)N[C@H](C(=O)N[C@@H](CCCCN)C(=O)N[C@@H](Cc1c[nH]c2ccccc12)C(=O)N[C@@H](CC(C)C)C(=O)N[C@@H](CCC(=O)O)C(=O)N[C@@H](CO)C(=O)N[C@H](C(N)=O)[C@@H](C)O)C(C)C)[C@@H](C)O)[C@@H](C)O [Compound 41] (H-HS[Dap](Ac)GTFTSDYSKYLD[Aib]ARAEEFVKWLEST-NH2) | 0.0038 | ≥ 1000
11 | H-HSQGTFTSDYSKYLDEARAKSFVEWLEST-OH [Compound 28] | 0.035 | ≥ 1000
12 | H-HSQGTFTSDYSKYLDSARAEEFVKWLEST-OH [Compound 9] | 0.03 | ≥ 1000
13 | H-HSQGTFTSDYSKYLDVARAESFVKWLEST-OH [Compound 19] | 0.054 | ≥ 1000
14 | H-HSQGTFTSDYSKYLDSARAEDFVSWLEST-OH [Compound 10] | 0.32 | ≥ 1000
15 | H-HSQGTFTSDYSKYLESARAEDFVKWLEST-OH [Compound 8] | 0.38 | ≥ 1000
16 | H-HSQGTFTSDYSKYLDSARAEDFVEWLEST-OH [Compound 6] | 1 | ≥ 1000
17 | CC(C)C[C@H](NC(=O)[C@H](Cc1c[nH]c2ccccc12)NC(=O)[C@H](CCCCN)NC(=O)[C@@H](NC(=O)[C@H](Cc1ccccc1)NC(=O)[C@H](CCC(=O)O)NC(=O)[C@H](CCC(=O)O)NC(=O)[C@H](C)NC(=O)[C@H](CCCNC(=N)N)NC(=O)[C@H](C)NC(=O)C(C)(C)NC(=O)[C@H](CC(=O)O)NC(=O)[C@H](CC(C)C)NC(=O)[C@H](Cc1ccc(O)cc1)NC(=O)[C@H](CCCCN)NC(=O)[C@H](CO)NC(=O)[C@H](Cc1ccc(O)cc1)NC(=O)[C@H](CC(=O)O)NC(=O)[C@H](CO)NC(=O)[C@@H](NC(=O)[C@H](Cc1ccccc1)NC(=O)[C@@H](NC(=O)CNC(=O)[C@H](CCC(N)=O)NC(=O)[C@H](CO)NC(=O)[C@@H](N)Cc1c[nH]cn1)[C@@H](C)O)[C@@H](C)O)C(C)C)C(=O)N[C@@H](CCC(=O)O)C(=O)N[C@@H](CCC(=O)O)C(=O)N[C@H](C(=O)O)[C@@H](C)O [Compound 36] (H-HSQGTFTSDYSKYLD[Aib]ARAEEFVKWLEET-OH) | 0.01 | ≥ 1000
